Experimental findings from patent US9701667B2, “Coumarin-based fluorogenic agents and uses thereof for specific protein labelling” (UNIVERSITY OF OTTAWA, priority 2014, dated 2017) are described below.

Entries after “also recorded” stand apart in the source; their conditions may differ.

Data set [1] deals with MBP-dC10α. The data set can be described thus: Fluorescence properties and fluorescence enhancement (FE) before/after labelling of model target protein. It is filed as biochemical. As to conditions: for Fluorescence enhancement (FE): after labelling with MBP-dC10, λex = 440 nm, λem = 485 nm, 50 mM HEPES pH 7.4; for fluorescence after the labelling reaction: after reaction with MBP-dC10α; for background (intrinsic) fluorescence before labelling / quenching: fluorogen without target protein. How it is done:
For experiments described herein, maltose-binding protein (MBP) was chosen as a highly-soluble test protein and the dC10α tag was fused to its C-terminus (MBP-dC10α) as described previously (Guy, J. et al., Mol. Biosyst. 2010, 6, 976-987).
Emission spectra and fluorescence intensity measurements were recorded at 37° C. with a Synergy H4 Hybrid Multi-Mode Microplate Reader with excitation and emission monochromators set at 9 nm bandpass. The mixture of 100 μM solution of fluorogen (YCx) and 100 μM MBP-dC10 in 50 mM HEPES buffer (pH 7.4) with 5% DMSO was incubated at 37° C. in the dark for 12 hours, after which the fluorescence emission spectrum of a dilution (25 μM final) in 50 mM HEPES buffer with 5% DMSO was recorded. The emission spectra of the corresponding labelling reagent in same solution without MBP-dC10α were also recorded. The ratio of fluorescence intensity at maximum emission gave the fluorescence enhancement (FE) ratio.

Data set [2] in a line: Kinetic studies of consecutive thiol addition reactions with model thiol MPA. As to conditions: for first thiol addition faster than second addition: ratio of first to second MPA addition rate; for k1 / k2: second order rate constant, 50 mM HEPES pH 7.4, 5% DMSO, 37° C.; for k1: first thiol addition of MPA; for k2: second thiol addition of MPA. The procedure:
Kinetic studies were then performed for the thiol addition reactions of YC5 and YC9 with 3-mercaptopropionic acid (MPA) as a water-soluble, nucleophilic model thiol (Scheme 13). Reactions were run in the presence of a large excess of MPA, making them pseudo-first order in fluorogen. The resulting time-dependent increase in fluorescence was fit to a model for consecutive first order reactions, providing pseudo-first order rate constants for both addition steps. The concentration of MPA was then varied, allowing second order rate constants to be calculated for both steps.
where I is fluorescence intensity, and the fluorescence intensity is linearly proportional to the concentration, since the concentration of fluorogen used here is within the linear range. So IA=a*[A]; IB=b*[B]; IP=p*[P]; [A]0=2.5*10^−5. With this formula, there will be 5 parameters, but based on the nature of the reaction and the fluorescent properties of the compounds, the 5 parameters can be restrained as: p>b>a>0; k1>k2>0. Finally, the formula and the conditions were applied in Origin 6.0 to fit the curves by non-linear regression, yielding values for the kobs for each step.
Kinetic experiments were carried out at 37° C. using Synergy H4 Hybrid Multi-Mode Microplate Reader with excitation and emission monochromators 9 nm bandpass. Solutions with different MPA concentrations were prepared in 96-well plate and labelling reagent (YC5 or YC9) in DMSO was added immediately before recording. The final concentration of labelling reagent was 25 μM and the final concentrations of MPA were 0.875 mM, 1 mM, 1.125 mM or 1.25 mM in 50 mM HEPES buffer (pH 7.4) with 5% DMSO (FIG. 12). Samples were excited at 440 nm and fluorescence intensity was followed at 485 nm as a function of time. All the time-dependent fluorescence increase curves were fitted by non-linear regression according to the formula from the last section using Origin to get kobs. kobs was plotted against MPA concentrations to obtain a second order rate constant.

In data set [3] the test system is MBP-dC10α. The data set can be described thus: Time-dependent fluorescence increase on reaction with test protein. The settings on record: for selectivity of labelling target protein over GSH: MBP-dC10 versus GSH; for reactivity with test protein MBP-dC10: 25 μM fluorogen, 25 μM MBP-dC10, 50 mM HEPES pH 7.4. It is filed as biochemical. How it is done:
(§1) Reactivity was tested through the time-dependent fluorescence increase at 37° C. using Synergy H4 Hybrid Multi-Mode Microplate Reader with excitation and emission monochromators set to 9 nm bandpass. All reactions were prepared in 50 mM HEPES buffer (pH 7.4) with 5% DMSO. Solutions of MBP-dC10α or GSH were prepared in 96-well plates and labelling reagent (YCx) in DMSO was added immediately before recording. The final concentration of labelling reagent was 25 μM, the final concentration of MBP-dC10α was 25 μM and the final concentration of GSH was 50 μM or 1 mM in 50 mM HEPES buffer (pH 7.4) with 5% DMSO. Samples were excited at 440 nm and fluorescence intensity was followed at 485 nm as a function of time.

Data set [4] in a line: Time-dependent fluorescence increase on reaction with GSH. The settings on record: for reaction with GSH: 50 mM HEPES pH 7.4; for reaction with low concentration of GSH / reaction with high concentration (large excess) of GSH: 25 μM fluorogen; for reaction with low concentration of GSH: 50 μM GSH; for reaction with high concentration (large excess) of GSH: 1 mM GSH. The procedure: as §1

The test system of data set [5] is cmyc-mNeptune-dC10α. The data set can be described thus: Intracellular labelling of test protein in transfected cells (YC9). It counts as cell-based, human. From the text:
The red fluorescent protein mNeptune was chosen as a target protein so that its intrinsic fluorescence would serve as a control for the transfection and expression of the target protein. The target sequence dC10α was cloned to its C-terminus and the cmyc epitope (which would ensure the protein was also at least partially directed to the nucleus) was cloned to its N-terminus. […] Furthermore, fluorescent labelling was most intense and nearly limited to cells (FIG. 11D) that expressed the target red fluorescent test protein (FIG. 11E).
HEK 293T cells were plated into 6-well plates equipped with 25 mm×25 mm coverslips and grown in DMEM supplemented with 10% FBS 16 h before transfection. Cells were transiently transfected with mNeptune-dC10α or pcDNA3.1 using lipofectamine 2000. Either 24 or 48 h after transfection, the cells were washed with complete DMEM and incubated with 25 μM YC9 in DMEM for 30 min at 37° C. The media with labelling reagent was removed and followed by 3 times washing over 3 h at 37° C. Cells were fixed after labelling for imaging on a Carl Zeiss Axiophot inverted microscope.

Data set [6] concerns HEK293T cells. The data set can be described thus: MTT cytotoxicity assay. It is filed as cell-based, human. The settings on record: 20 h incubation. The procedure:
3-(4,5-Dimethylthiazol-2-yl)-2,5-diphenyl tetrazolium bromide (MTT) is a yellow tetrazolium salt and can be reduced to formazan crystals, which are insoluble in aqueous solutions, by active mitochondria in living cells. The resulting intracellular purple formazan can be dissolved in Triton X100, and therefore quantified by measuring absorption of the solution.
Cells were seeded in a 96-well plate and incubated with 100 μL of culture medium with different amounts of the fluorogen YCx for 16 h. No fluorogen was added to the positive control and no cells were plated in the negative control. Portions of 25 μL of MTT solution (5 mg in 1 mL of Hanks' balanced salt solution) were added to the wells and the cells were further incubated at 37° C. for 4 h. Solubilization solutions (100 μL) were then added and incubated in 96-well plates at room temperature in the dark overnight. The absorption of each well was measured using a plate reader at a wavelength of 570 nm with 690 nm as a reference. Cell viability was calculated according to the following equation: Cell viability=(Awith fluorogen−Anegative control)/(Apositive control−Anegative control).

Data set [7] can be described thus: Aqueous solubility. It is filed as physicochemical.

As to `CCN(CC)c1ccc2cc(C(=O)Nc3cc(N4C(=O)C=C(C)C4=O)cc(N4C(=O)C=C(C)C4=O)c3)c(=O)oc2c1` [YC5, N-(3,5-bis(3-methyl-2,5-dioxo-2,5-dihydro-1H-pyrrol-1-yl)phenyl)-7-(diethylamino)-2-oxo-2H-chromene-3-carboxamide], in data set [1], the “Fluorescence enhancement (FE)” value amounted to 69, the “fluorescence after the labelling reaction” value is given as “strong fluorescence; also recorded: strongly fluorescent” and the “background (intrinsic) fluorescence before labelling / quenching” value is listed as “negligible background fluorescence”. Also, in data set [2], the “first thiol addition faster than second addition” value is listed as 7 times, the k1 was 1.208 ± 0.249 M⁻¹ s⁻¹ and the k2 was determined as 0.1571 ± 0.0510 M⁻¹ s⁻¹. For the same compound, the “selectivity of labelling target protein over GSH” value in data set [3] is reported as “reacted faster with MBP-dC10α than with GSH”. In addition, the “reaction with GSH” value in data set [4] is recorded as “still appreciable”.

Take `CCN(CC)c1ccc2cc(C(=O)Nc3cc(N4C(=O)C=C(C)C4=O)cc(N4C(=O)C=C(OC)C4=O)c3)c(=O)oc2c1` [YC9, 7-(Diethylamino)-N-(3-(3-methoxy-2,5-dioxo-2,5-dihydro-1H-pyrrol-1-yl)-5-(3-methyl-2,5-dioxo-2,5-dihydro-1H-pyrrol-1-yl)phenyl)-2-oxo-2H-chromene-3-carboxamide]: the melting point lay within 88.3 to 93.7 °C. In data set [1], the “Fluorescence enhancement (FE)” value was determined as 62, the “fluorescence after the labelling reaction” value is recorded as “strongly fluorescent” and the “background (intrinsic) fluorescence before labelling / quenching” value is on record as “negligible background fluorescence”. Further, in data set [2], the “first thiol addition faster than second addition” value is 63 times, the k1 came out at 2.480 ± 0.216 M⁻¹ s⁻¹ and the k2 was 0.0388 ± 0.0133 M⁻¹ s⁻¹. Also, in data set [3], the “reactivity with test protein MBP-dC10” value is listed as “still rapid”. Also, in data set [4], the “reaction with low concentration of GSH” value is “did not react”, the “reaction with high concentration (large excess) of GSH” value (shortened to “reaction with high concentration”) is “showed some signal” and the “reaction with GSH” value was “completely suppressed”. For the same compound, in data set [5] (HEK293 cells transfected with cmyc-mNeptune-dC10α, 25 μM YC9, 30 min), the “selectivity of labelling dC10α-tagged target protein in living cells” value is given as “high selectivity”. Further, the “background fluorescence in mock-transfected cells” value in data set [5] (cells transfected with empty (mock) vector, 25 μM YC9) is reported as “minimal background fluorescence”.

`CCC1=CC(=O)N(c2cc(NC(=O)c3cc4ccc(N(CC)CC)cc4oc3=O)cc(N3C(=O)C=C(C)C3=O)c2)C1=O` [YC15]: the “Fluorescence enhancement (FE)” value in data set [1] worked out at 226. In data set [4], the “reaction with low concentration of GSH” value was “did not react” and the “reaction with high concentration” value was “showed some signal”.

On to `CCN(CC)c1ccc2cc(C(=O)Nc3cc(N4C(=O)C=C(C)C4=O)cc(N4C(=O)C=C(C(C)C)C4=O)c3)c(=O)oc2c1` [YC16], for which the “Fluorescence enhancement (FE)” value in data set [1] was found to be 228. Further, in data set [4], the “reaction with low concentration of GSH” value is on record as “did not react” and the “reaction with high concentration” value is recorded as “showed some signal”.

On to `CCOC1=CC(=O)N(c2cc(NC(=O)c3cc4ccc(N(CC)CC)cc4oc3=O)cc(N3C(=O)C=C(C)C3=O)c2)C1=O` [YC17], for which the “Fluorescence enhancement (FE)” value in data set [1] amounted to 194. In addition, in data set [4], the “reaction with low concentration of GSH” value was “did not react” and the “reaction with high concentration” value is reported as “showed some signal”.

As to `CCN(CC)c1ccc2cc(C(=O)Nc3cc(N4C(=O)C=C(C)C4=O)cc(N4C(=O)C=C(Br)C4=O)c3)c(=O)oc2c1` [YC18], the “Fluorescence enhancement (FE)” value in data set [1] stood at 468. In data set [3], the “reactivity with test protein MBP-dC10” value was “much more reactive than other fluorogens; also recorded: labelled the protein most efficiently” and the “selectivity of labelling target protein over GSH” value is “did not show much difference; also recorded: not as selectively as other fluorogens”.

In the case of `CCN(CC)c1ccc2cc(C(=O)Nc3cc(N4C(=O)C=C(C)C4=O)cc(N4C(=O)C=C(OC(C)C)C4=O)c3)c(=O)oc2c1` [YC19], the “Fluorescence enhancement (FE)” value in data set [1] worked out at 189. Also, in data set [4], the “reaction with low concentration of GSH” value is on record as “did not react” and the “reaction with high concentration” value was “showed some signal”.

Turning to `COC(=O)CCN(CCC(=O)OC)c1ccc2cc(C(=O)Nc3cc(N4C(=O)C=C(OC)C4=O)cc(N4C(=O)C=C(OC)C4=O)c3)c(=O)oc2c1` [YC21M, Dimethyl 3,3′-((3-((3,5-bis(3-methoxy-2,5-dioxo-2,5-dihydro-1H-pyrrol-1-yl)phenyl)carbamoyl)-2-oxo-2H-chromen-7-yl)azanediyl)dipropanoate], the “cytotoxicity (cell viability, MTT)” value in data set [6] is “neither showed any cytotoxicity up to 100 μM”.

For the compound `COc1ccc2cc(C(=O)N3CCN(C(=O)c4cc(N5C(=O)C=C(C)C5=O)cc(N5C(=O)C=C(C)C5=O)c4)CC3)c(=O)oc2c1` [YC24, 1,1′-(5-(4-(7-methoxy-2-oxo-2H-chromene-3-carbonyl)piperazine-1-carbonyl)-1,3-phenylene)bis(3-methyl-1H-pyrrole-2,5-dione)], in data set [1], the “fluorescence after the labelling reaction” value is on record as “weak” and the “background (intrinsic) fluorescence before labelling / quenching” value is given as “quenched very efficiently”.

Regarding `CCN(CC)c1ccc2cc(C(=O)N3CCN(C(=O)c4cc(N5C(=O)C=C(C)C5=O)cc(N5C(=O)C=C(C)C5=O)c4)CC3)c(=O)oc2c1` [YC25, 1,1′-(5-(4-(7-(diethylamino)-2-oxo-2H-chromene-3-carbonyl)piperazine-1-carbonyl)-1,3-phenylene)bis(3-methyl-1H-pyrrole-2,5-dione)], the “background (intrinsic) fluorescence before labelling / quenching” value in data set [1] was “strong background fluorescence”.

As for `COc1ccc2cc(C(=O)Nc3cc(N4C(=O)C=C(C)C4=O)cc(N4C(=O)C=C(C)C4=O)c3)c(=O)oc2c1` [YC26, N-(3,5-bis(3-methyl-2,5-dioxo-2,5-dihydro-1H-pyrrol-1-yl)phenyl)-7-methoxy-2-oxo-2H-chromene-3-carboxamide], the aqueous solubility entry in data set [7] is reported as “poor aqueous solubility”.
